row,Compound,melting point
1,Nc1nnc(SCC(CS(=O)(=O)c2ccc(-c3ccc(Cl)cc3)cc2)C(=O)O)s1 (centres undefined),184 to 186 °C
2,CCOC(=O)c1cn(-c2cccc(Oc3ccc([N+](=O)[O-])cc3)c2)cn1,162 to 163 °C
3,COc1cc(C=C2C(=O)NC(=O)N2C)ccc1O,197 to 198 °C
4,COc1cnc(C(=O)O)cc1Cl,209 °C
5,O=C(CCCC1CCCCC1)C1=C(O)CSC1=O,45 to 50 °C
6,Cc1nc(CS(C)(=O)=O)nc(OC(=O)NN2CC(C)OC(C)C2)c1C (centres undefined),103 °C
7,Cn1c(-c2cccs2)nnc1S(C)(=O)=O,157 to 159 °C
8,O=C(SC1CCN(C(C(=O)C2CC2)c2ccccc2F)CC1)c1ccccc1 (centres undefined),55 to 59 °C
9,COC(=O)c1cc(C#N)ccc1NC(=O)c1cccc(S(=O)(=O)N2CCOCC2)c1,184 to 185 °C
10,CCOC(=O)CCc1cc(O)nn1CC(C)C,102 to 103 °C
11,O=C(Nc1cccc(S(=O)(=O)N2CCCC2)c1)c1cnn2c(C(F)(F)F)cc(-c3ccc(Cl)c(Cl)c3)nc12,280 °C
12,CC(=O)NCC1CCN(CC2COc3ccccc3O2)CC1 (centres undefined),138 °C
13,Cc1nc(N)nc(N)c1N=Nc1ccc(I)cc1,243 to 244 °C
14,O=C1c2ccccc2C(=O)N1CCCCCCc1cnc2ccccc2c1,90 to 91 °C
15,CC(C)OC(=O)C(C)n1c(C(F)(F)F)nc2cc(F)c(-n3c(=O)cc(C(F)(F)F)n(C)c3=O)cc21 (centres undefined),133 to 135 °C
16,CSc1nnc(-c2ccnc(Nc3cccc(C(F)(F)F)c3)c2)o1,189 to 190 °C
17,CCC(NC(=N)NC#N)c1ccccc1 (centres undefined),121 to 123 °C
18,CC1(O)CC(=O)OC(CCc2ccc(OCc3ccccc3)cc2)C1 (centres undefined),82 to 85 °C
19,CC(=O)SCC(C(=O)N1CCC(=C2c3ccc(Cl)cc3CCc3cccnc32)CC1)c1ccccc1 (centres undefined),92.7 to 93 °C
20,CCCCOc1cc(CCC(=O)O)ccc1CCCc1ccc(OS(=O)(=O)CC)c(OC)c1,64 °C
21,O=c1oc2ccccc2s1,25.8 to 27 °C
22,CCn1cc(C(=O)O)c(=O)c2cc(F)c(N3CCNC(Cn4cccc4)C3)cc21 (centres undefined),185 to 188 °C
23,CC(C)(C)OC(=O)Nc1ccc(-c2noc(COc3ccc(F)c(C(N)=O)c3F)n2)cc1,165 to 166 °C
24,CSc1c(O[C@H]2CC[C@@H](N(C)C)CC2)ccc2[nH]ncc12,139 to 140 °C
25,COc1cc(OC)nc(Oc2cccc(OC(F)F)c2C(=O)O)n1,113 to 115 °C

row,Compound,melting point
1,CC(C)CCOc1c(-c2ccc(S(C)(=O)=O)cc2)cnn(-c2cccc(Cl)c2)c1=O,134 to 135 °C
2,CNC(=O)Oc1ccc(CN2CCN(c3ccc([N+](=O)[O-])cc3)CC2)cc1OC,155 to 157 °C
3,COc1ccc2c(c1)c(C)c(-c1ccc(O)cc1)n2Cc1ccc(OCCN2CCCCC2)cc1,87 to 90 °C
4,CCC(C)CCCC(C)C1CC(=O)C2(C(=O)O)C3=C(CCC12C)C1(C)CCC(O)CC1CC3 (centres undefined),195 to 196 °C
5,CC(C)C(=CCS(=O)(=O)c1ccccc1)C(C)C,50 °C
6,Cc1cc(C)c(C2C(=O)NC3(CCN(N(C)C)CC3)C2=O)c(C)c1 (centres undefined),237 to 241 °C
7,COCCNC(=O)c1cccc(NC(=O)Oc2ccccc2)c1,142 to 150 °C
8,CCOC(=O)c1c(CCl)nc2cc3c(cc2c1-c1ccc(OC)c(OC)c1)OCCO3,197 to 198 °C
9,CC(C)(C)c1ccc(-c2nc(Cl)c3ccccc3n2)cc1,75 to 76.5 °C
10,CC(=O)N1CCC(NC(=O)Nc2ccc(C(F)(F)F)cc2)CC1,240 to 248 °C
11,C=CCN1CCC2(CC1)c1ccccc1C(=O)c1c(OC)cccc12,115 to 117 °C
12,CCCC(=O)c1cnc2c(C)cccc2c1Nc1ccccc1CC,117 to 119 °C
13,COCCNC(=O)c1cccc(-c2cccc3c2nc(Oc2ccc(Cl)c(F)c2)n3C)c1,150 to 151 °C
14,CC(C)n1nc(-c2cc(-c3ccn[nH]3)cnc2-c2ccccc2)ccc1=O,212 to 213 °C
15,CC1Cc2c(c(Cl)cc(Cl)c2-n2nc(C(C)(C)C)oc2=O)O1 (centres undefined),112 to 115 °C
16,CC(=O)Oc1ccc(C=C2SC(=O)NC2=O)cc1,238 to 240 °C
17,N#Cc1cc(-c2ccccc2)cnc1Cl,149 to 150 °C
18,CN1CCN(c2cnc([N+](=O)[O-])c(Cl)n2)CC1,50 °C
19,COc1cc(OC)nc(Oc2ccccc2C(=O)OC(=O)c2ccccc2Oc2nc(OC)cc(OC)n2)n1,120 to 122 °C
20,COc1cc(N)nc(Cl)n1,186 °C
21,CN(C(=S)NN)c1ccccc1,121 to 122 °C
22,COc1cc2cnnc(N3CCC(CC(C)O)CC3)c2cc1OC (centres undefined),154 to 156 °C
23,Cc1ccnc(N2CCN(CCc3c(-c4ccc(O)cc4)n4c5c(cccc35)CCC4)CC2)c1,220 °C
24,CC(C(=O)O)N1CCNC(C(=O)O)C1 (centres undefined),173 to 174 °C
25,O=C(O)CN1CCC(Cc2ccccc2)CC1,250 to 252 °C

row,Compound,melting point
1,C#CCOc1cccc(-n2c(-c3ccccc3)cc(=O)c(C)c2-c2ccccc2)c1,166 to 169 °C
2,COC(=O)c1cc(OC)c(OC)c(OC)c1-c1c(C(=O)OC)cc2c(c1OC)OCO2,109 to 110 °C
3,CC(C)(C)OC(=O)NCCCCC/C=C/C(=O)O,76 to 78 °C
4,CN1CC(CCN(C)c2ccccc2)Oc2ncccc2C1=S (centres undefined),164 to 165 °C
5,CCN(CCO[N+](=O)[O-])C(=O)COC(=O)[C@@H](C)c1ccc2cc(OC)ccc2c1,60 to 61 °C
6,Cc1oc(-c2ccco2)nc1COc1ccc(Cc2nc(CCC(=O)O)c(-c3ccccc3)o2)cc1,154 to 155 °C
7,CC(C)Cc1nc2sc3c(NCc4cccnc4)ncnc3c2c2c1CCC(C)(C)C2,230 °C
8,COc1ccc(-c2ccc(Cl)cc2)cc1COc1cccc2cc(NS(=O)(=O)C(F)(F)F)ccc12,155 to 157 °C
9,O=C(CCCCN1CCN(c2cccc(Cl)c2Cl)CC1)N1CCc2ccccc21,121 to 123 °C
10,CNc1nccc2c1nnn2Cc1ccccc1,269 to 273 °C
11,CCCCNS(=O)(=O)c1cc(C(=O)OCC)cc(NCc2ccccc2)c1Oc1ccccc1,149 to 150 °C
12,O=C1CCCc2c1ccn2S(=O)(=O)c1ccccc1,108 to 110 °C
13,COc1ccc(N2CCOCC2)c2sc(C(N)=O)nc12,228 to 230 °C
14,CC(C)(C)OC(=O)N1CCc2cc3nccnc3cc2CC1,107 to 109 °C
15,CC(C)(C(=O)OCC(=O)c1ccccc1)n1c(=O)[nH]c2cccc(F)c2c1=O,179 to 180 °C
16,C=Cn1ccnc1C(O)(c1ccc(C(C)(C)C)cc1)c1ccc(C(C)(C)C)cc1,169 to 170 °C
17,CC(C)(C)NCC(O)COc1ccccc1C#Cc1ccc(C(N)=O)cc1 (centres undefined),199 to 201 °C
18,O=C(CC12CC3CC(CC(C3)C1)C2)Nc1ccccc1Cl,122 to 124 °C
19,CCn1c(C=O)cnc1[N+](=O)[O-],38 to 40 °C
20,O=C1C=CC(OC(=O)c2ccc([N+](=O)[O-])cc2)(c2nc3ccccc3s2)C=C1,138 °C
21,CCOC(=O)CCc1n[nH]c(SCc2ccc(OCc3nc(-c4ccccc4)oc3C)cc2)n1,114 to 115 °C
22,COC(=O)C(=O)c1ccc(OC/C=C/c2ccc(F)cc2)cc1,84 to 85 °C
23,Cc1nc(-n2cnn(Cc3ccc(OC(F)F)cc3)c2=O)sc1C(=O)NCc1cccnc1,151 to 152 °C
24,CCC(=C(c1ccccc1)c1ccc(C=CC(N)=NO)cc1)c1ccccc1,182 to 185 °C
25,CCn1ccc(=O)[nH]c1=O,150 °C

row,Compound,melting point
1,CCc1nc(O)c2c(n1)c(C)nn2CC,192 to 194 °C
2,CC1(C)C=NC(CC(=O)O)(NC(c2ccccc2)(c2ccccc2)c2ccccc2)S1 (centres undefined),180 to 182 °C
3,NCCCc1ccc(OCCC2Oc3ccccc3N(Cc3cccc(Cl)c3)C2=O)cc1 (centres undefined),109 to 111 °C
4,O=C(NCc1ccc(Cl)cc1)c1cnc2sccc2c1O,238 to 240 °C
5,CC1(C)CN(C2CC3(C)C(CCC4C3CCC3(C)C(C(=O)CSC#N)CCC43)CC2O)CCO1 (centres undefined),166 °C
6,O=C1N[C@H](Cc2cccc(OC(F)(F)C(F)F)c2)[C@H](c2cccc(F)n2)O1 (racemic),118 to 119 °C
7,CCOC(=O)N1CCC(=C2c3ccc(Cl)cc3C=Cc3cccnc32)CC1,155 to 156 °C
8,CNC1(C)CN(c2cc3c(cc2F)c(=O)c(C(=O)O)cn3C(C)(C)C)C1,251 to 253 °C
9,Cc1c(C(=O)N2Cc3ccccc3Cc3ccccc32)csc1C(N)=O,201 to 204 °C
10,CN(c1cccc(-c2ccnc3c(C#N)cnn23)c1)S(C)(=O)=O,193 to 195 °C
11,Cc1cc(C)cc(C(=O)N2CCC(N3CCC(NCCc4ccccc4)CC3)CC2Cc2ccccc2)c1 (centres undefined),67.8 °C
12,O=C(OCC=Cc1ccccc1)c1cccc2nnsc12,70 to 72 °C
13,Cc1oc(-c2ccc(C(F)(F)F)cc2)nc1COc1ccc(CN(O)C(=O)NN)cc1,94 to 95 °C
14,Cc1ccccc1NC(=NC#N)NC(NC(=O)CCCc1ccccc1)C(C)(C)C (centres undefined),153 to 154 °C
15,Cc1ncoc1C(O)c1ccc(F)cc1 (centres undefined),102 to 104 °C
16,CCC1Cc2c(nc3ccc(F)cc3c2C(=O)O)-c2ccc(-c3ccccc3F)cc21 (centres undefined),236 to 237 °C
17,CCCCOc1ccc(C(=O)c2cccc(C(=O)O)c2)c(O)c1,175 °C
18,N#Cc1ccc(-c2cn(-c3ccc(C#N)cc3)c(Cc3ccccc3)n2)cc1,168 to 188 °C
19,COc1cccc(OC2COc3ccc(OCc4ccccc4)cc3C2=O)c1 (centres undefined),98 to 100 °C
20,CCON=C1CN(c2nc3c(cc2F)c(=O)c(C(=O)O)cn3C2CC2)CC12CN(C(=O)OC(C)(C)C)C2,261 to 262 °C
21,Nc1cnc2c(NC(=O)c3c(Cl)cccc3Cl)cccc2c1-n1ccnc1,> 250 °C
22,Cc1cccc(-c2cc3cnc(N)nc3nc2NC(=O)NC(C)(C)C)c1C,326 to 330 °C
23,CCN1C(=O)C(C)(C)C(=O)N(C)c2cc(CN(CCn3ccc4oc(C)cc4c3=O)Cc3cccnc3Cl)ccc21,159 to 161 °C
24,O=C(O)c1cnc(-c2ccc(Cl)cc2)s1,233 to 234 °C

# Source: a melting point compilation (Tetko et al.; mined from patent text by program, amines drawn as free bases though some values may be those of a salt)
